Laboratory results taken from patent US20220184394A1, “STATE-DEPENDENT PUDENDAL NERVE STIMULATION FOR BLADDER CONTROL” (Duke University, priority 2017, published 2022).
“Also recorded” adds a separate entry of the source. Where two headings read alike, the source gives them in different places.

Assays:
bladder [1] = experiment: Single-fill cystometry with intravesical PGE2 (model of OAB) in anesthetized rats; type: in vivo, Female Wistar rats; details: intravesical 100 μM PGE2 vs saline control
Protocol: Female Wistar rats (n=18) weighing between 237 and 296 g were anesthetized with urethane (1.2 g/kg SC, supplemented as necessary). Body temperature was monitored using an esophageal temperature probe and maintained at 36-38° C. with a water blanket. Heart rate and arterial blood oxygen saturation levels were monitored using a pulse oximeter (Nonin Medical Inc., 2500 A VET).
For cystometrogram (CMG) measurements, the bladder was exposed via a midline abdominal incision. A PE-90 catheter, the tip of which was heated to create a collar, was inserted into the bladder lumen through a small incision in the apex of the bladder dome and secured with a 6-0 silk suture. The abdominal wall was closed in layers with 3-0 silk suture. […]
The bladder was filled continuously with physiological saline at room temperature (2-8 ml/hr) using an infusion pump with an open urethra for at least 45 minutes during post-surgical recovery. The bladder was subsequently emptied and cystometrograms (CMGs) recorded. […] Voided and residual volumes were recorded and used to calculate bladder capacity and voiding efficiency. […] For these trials, voiding efficiency was calculated as the first voided volume divided by the bladder capacity, and “reflex” voiding efficiency was calculated as the sum of the two voided volumes divided by the bladder capacity. […]

bladder [2] = details: PGE2 given to healthy women; cited from earlier work
bladder [3] = details: intravesical PGE2, rats; cited from earlier work

CCCCC[C@H](O)/C=C/[C@H]1[C@H](O)CC(=O)[C@@H]1C/C=C\CCCC(=O)O [PGE2, Prostaglandin E2]
Voiding efficiency (bladder [1]; n=9, p<0.001): increased voiding efficiency; also recorded: Voiding efficiency increased
Bladder capacity (bladder [1]; urethane-anesthetized, n=9, p=0.02): consistently reduced bladder capacity; also recorded: decreased bladder capacity; also recorded: Bladder capacity decreased
Bladder capacity (bladder [2]): reduced bladder capacities
Urgency sensation (bladder [2]): a strong urgency sensation
Bladder capacity (bladder [3]): reduces bladder capacity
